pEC50: −log10 of the molar value. Where two headings read alike, the source gives them in different places.
Assays:
RSV A2 strain = assay: In vitro CPE (CytoPathic Effect) inhibition effect evaluation test, RSV type A; format: cell-based; details: human respiratory syncytial virus
In short: (§1)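 HEp-2 cells (2.4×10^5 cells/mL, 2% FBS E-MEM) were infected with RSV alongside 3-fold compound dilutions and incubated at 37 °C, 4 days for A2 and 5 days for B Wash/18537. Viable cells quantified by CellTiter-Glo 2.0 luminescence; EC50 by nonlinear regression as 50% CPE inhibition.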

[1] = system: RSV B (Wash/18537 strain); assay: In vitro CPE (CytoPathic Effect) inhibition effect evaluation test, RSV type B; format: cell-based; details: human respiratory syncytial virus
In short: as §1

[2] = inhibitory effect against RSV type A (RSV A2 strain), HEp-2 cells, CPE inhibition, read-out: EC50
[3] = inhibitory effect against RSV type B, CPE inhibition, read-out: EC50
[4] = HEp-2, 96 h, read-out: EC50, inhibitory effect against RSV type A (CPE inhibition)
[5] = HEp-2, 120 h, HEp-2 cells, RSV B (Wash/18537 strain), 5 days, CellTiter-Glo, read-out: EC50, inhibitory effect against RSV type B (CPE inhibition)

Compound | pEC50 (RSV A2 strain; [2]) | pEC50 [1, 3] | pEC50 (RSV A2 strain; [4]) | pEC50 [1, 5]
COc1cccc(COc2ccc3c(c2)CCN3c2ncc(C(=O)NC3(C(=O)O)CC4CCC3C4)c(C(F)(F)F)n2)c1 (single isomer, unassigned) [Compound I-16] | > 8.00 | 7.00 to 8.00 | – | –
O=C(NC1(C(=O)O)C2CC3CC(C2)CC1C3)c1cnc(-c2cn(C3CCC(F)(F)CC3)c3cc(OC4CCC5(CC4)CN(CC(F)(F)F)C5)ccc23)nc1C(F)(F)F (stereo not drawn) [Compound I-370] | > 8.00 | 7.00 to 8.00 | – | –
O=C(NC1(C(=O)O)C2CC3CC(C2)CC1C3)c1cnc(N2CC3(CCCCC3)c3cc(OC4CCN(c5cnccn5)CC4)ccc32)nc1C(F)(F)F (stereo not drawn) [Compound I-523] | > 8.00 | > 8.00 | – | –
O=C(NC1(C(=O)O)C2CC3CC(C2)CC1C3)c1cnc(-c2cn(C3CCC(F)(F)CC3)c3cc(OC4CCN(C5COC5)CC4)ccc23)nc1C(F)(F)F (stereo not drawn) [Compound I-234] | > 8.00 | 7.00 to 8.00 | – | –
O=C(NC1(C(=O)O)C2CC3CC(C2)CC1C3)c1cnc(N2CC3(CCCCC3)c3cc(OC4CCN(C5CC(F)(F)C5)CC4)ccc32)nc1C(F)(F)F (stereo not drawn) [Compound I-393] | > 8.00 | 7.00 to 8.00 | – | –
CC(F)(F)c1nc(N2CC3(CCOCC3)c3cc(O[C@H]4CC[C@H](N5CC(F)(F)C5)CC4)ncc32)ncc1C(=O)NC1(C(=O)O)C2CC3CC(C2)CC1C3 (stereo partly drawn) [Compound I-594] | – | – | 9.42 | 8.38
O=C(NC1(C(=O)O)CCCCC1)c1ccc(N2CCc3cc(OCCC4CCOCC4)ccc32)nc1C(F)(F)F [Compound I-33] | – | – | 8.12 | 6.96
O=C(NC1(C(=O)O)C2CC3CC(C2)CC1C3)c1cnc(N2CC3(CCCCC3)c3cc(O[C@H]4CC[C@H](N5CC(F)(F)C5)CC4)ncc32)nc1C(F)(F)F (stereo partly drawn) [Compound I-595] | > 8.00 | > 8.00 | – | –
CC(F)(F)c1nc(N2CC3(CCOCC3)c3cc(OC4CCC5(CC4)COC5)ccc32)ncc1C(=O)NC1(C(=O)O)C2CC3CC(C2)CC1C3 (stereo not drawn) [Compound I-527] | > 8.00 | > 8.00 | – | –
O=C(NC1(C(=O)O)C2CC3CC(C2)CC1C3)c1cnc(N2CC3(CCOCC3)c3cc(OCCC(F)(F)F)ncc32)nc1C(F)(F)F (stereo not drawn) [Compound I-489] | > 8.00 | > 8.00 | – | –
O=C(NC1(C(=O)O)C2CC3CC(C2)CC1C3)c1cnc(-c2cn(C3CCC(F)(F)CC3)c3cc(OC4CC5(C4)CN(CC(F)(F)F)C5)ccc23)nc1C(F)(F)F (stereo not drawn) [Compound I-406] | > 8.00 | 7.00 to 8.00 | – | –
O=C(NC1(C(=O)O)C2CC3CC(C2)CC1C3)c1cnc(N2CC3(CCCC3)c3cc(OC4CCN(CC(F)(F)F)CC4)ccc32)nc1C(F)(F)F (stereo not drawn) [Compound I-474] | > 8.00 | 7.00 to 8.00 | – | –
O=C(NC1(C(=O)O)C2CC3CC(C2)CC1C3)c1ccc(-c2cn(C(=O)OC3CCOCC3)c3cc(OC4CCN(c5ncccn5)CC4)ccc23)nc1C(F)(F)F (stereo not drawn) [Compound I-152] | > 8.00 | > 8.00 | – | –
O=C(NC1(C(=O)O)C2CC3CC(C2)CC1C3)c1cnc(-c2cn(C3CCC(F)(F)CC3)c3cc(OC4CCN(C5CC(F)(F)C5)CC4)ccc23)nc1C(F)(F)F (stereo not drawn) [Compound I-249] | > 8.00 | 7.00 to 8.00 | – | –
CC(F)(F)c1nc(N2CC3(CCCCC3)c3cc(OC4CCC5(CC4)CN(CC(F)(F)F)C5)ccc32)ncc1C(=O)NC1(C(=O)O)C2CC3CC(C2)CC1C3 (stereo not drawn) [Compound I-550] | > 8.00 | 7.00 to 8.00 | – | –
CC(F)(F)c1nc(N2CC3(CCOCC3)c3cc(O[C@H]4CC[C@H](N5CC(F)(F)C5)CC4)ccc32)ncc1C(=O)N[C@]1(C(=O)O)[C@@H]2CC3C[C@H]1C[C@@](F)(C3)C2 [Compound I-554] | > 8.00 | > 8.00 | – | –
CC(F)(F)c1nc(N2CC3(CCCCC3)c3cc(OC4CCN(CC(F)(F)F)CC4)ccc32)ncc1C(=O)NC1(C(=O)O)C2CC3CC(C2)CC1C3 (stereo not drawn) [Compound I-440] | > 8.00 | 7.00 to 8.00 | – | –
O=C(NC1(C(=O)O)C2CC3CC(C2)CC1C3)c1cnc(-c2cn(C3CC3)c3cc(OC4CCN(c5ncc(F)cn5)CC4)ccc23)nc1C(F)(F)F (stereo not drawn) [Compound I-379] | > 8.00 | > 8.00 | – | –
CC(F)(F)c1nc(-c2cn(C3CC3)c3cc(O[C@H]4CC[C@H](N5CC(F)(F)C5)CC4)ccc23)ncc1C(=O)NC1(C(=O)O)C2CC3CC(C2)CC1C3 (stereo partly drawn) [Compound I-530] | > 8.00 | > 8.00 | – | –
COC[C@H](C)n1cc(-c2ncc(C(=O)NC3(C(=O)O)C4CC5CC(C4)CC3C5)c(C(F)(F)F)n2)c2ccc(O[C@H]3CC[C@H](N4CC(F)(F)C4)CC3)cc21 (stereo partly drawn) [Compound I-508] | > 8.00 | > 8.00 | – | –
O=C(NC1(C(=O)O)CCCCC1)c1cnc(N2CCc3cc(OC4CCN(c5ncccn5)CC4)ccc32)nc1C(F)(F)F [Compound I-36] | > 8.00 | 7.00 to 8.00 | – | –
